Data taken from patent US12102610B2, “Treprostinil salt” (Eli Lilly and Company, priority 2018, dated 2024).
Counter-ions that a name gives are not always drawn.

What was measured:
[1] = Hygroscopicity by dynamic vapor sorption/resorption, with XRD of samples from the adsorption/desorption process; format: physicochemical; settings: for weight increase at the 80% relative humidity point: dried samples, sorption in 5% RH steps; for hygroscopicity classification: from weight increase at 80% relative humidity, European Pharmacopoeia monograph 5.11 definitions, experimental conditions differ; for physical form change on humidity exposure (XRD): samples collected at different points in the adsorption/desorption process
Experimental: Hygroscopicity analyses of treprostinil erbumine salt, prepared as described above, and treprostinil sodium, purchased from a chemical supply company, are performed on a TA Instruments Q5000SA sorption analyzer. Hygroscopicity profiles are generated on dried samples at 25° C., increasing relative humidity by 5% up to 95%, then decreasing in 5% intervals back down to 5% relative humidity. The samples are equilibrated at each increment until weight percent change is <0.0100 for 5 min.

[2] = Thermal stability by thermal gravimetric analysis (TGA); format: physicochemical
Experimental: The thermal stability of samples of treprostinil erbumine salt, prepared as described above, and treprostinil free acid, purchased from a chemical supply company, are analyzed through thermal gravimetric analyses (TGA) performed on a TA Instruments TGA-Q5000 thermal gravimetric analyzer and differential scanning calorimetry (DSC) performed on a TA Instruments Q2000 differential scanning calorimeter. FIGS. 1 (erbumine salt) and 2 (free acid) show overlays of the TGA thermograms from 25-225° C. and the DSC thermograms from 25-300° C. […] DSC data for the erbumine salt show a single endothermic event (likely melt or decomposition) beginning at 143.73° C. and three endothermic events (71.17° C., 95.57° C., and 125.15° C.) for the free acid, corresponding to what is likely a hydrate along with at least two anhydrous crystal forms.

SMILES: CCCCC[C@H](O)CC[C@@H]1[C@H]2Cc3cccc(OCC(=O)O)c3C[C@H]2C[C@H]1O [erbumine salt, 2-[[(1R,2R,3aS,9aS)-2-hydroxy-1-[(3S)-3-hydroxyoctyl]-2,3,3a,4,9,9a-hexahydro-1H-cyclopenta[g]naphthalen-5-yl]oxy]acetic acid t-butylamine]
- weight increase at the 80% relative humidity point ([1]; 25° C.): < 0.2%
- hygroscopicity classification [1]: non-hygroscopic to slightly hygroscopic
- physical form change on humidity exposure (XRD) [1]: did not show a physical form change
- TGA weight loss ([2]; between 25-100° C.): 0.2318%
- thermally stable up to ([2]; conclusion from TGA/DSC thermal characterization data): at least 100 °C

SMILES: CCCCC[C@H](O)CC[C@@H]1[C@H]2Cc3cccc(OCC(=O)O)c3C[C@H]2C[C@H]1O [free acid, (1R,2R,3aS,9aS)-[[2,3,3a,4,9,9a-Hexahydro-2-hydroxy-1-[(3S)-3-hydroxyoctyl]-1H-benz[f]inden-5-yl]oxy]acetic acid]
- TGA weight loss ([2]; between 26-70° C.): 1.090%

SMILES: CCCCC[C@H](O)CC[C@@H]1[C@H]2Cc3cccc(OCC(=O)O)c3C[C@H]2C[C@H]1O [sodium salt]
- relative humidity at which desorption of water begins ([1]; 25° C., desorption in 5% RH steps from 95%): 45 % RH
- weight increase at the 80% relative humidity point ([1]; 25° C.): 25%
- hygroscopicity classification [1]: very hygroscopic
- physical form change on humidity exposure (XRD) [1]: non-reversible change to amorphous or poorly crystalline state
